Measurements: patent US20250011311A1, “AMIDO HETEROAROMATIC COMPOUNDS” (AstraZeneca AB, priority 2022, published 2025)

Legend:
[1] = target: recombinant 17bHSD4 (M1-N311) (Homo sapiens (Human), UniProt P51659); test: In Vitro 17bHSD4 Enzyme Assay; assay type: biochemical; settings: 40 nM 17bHSD4, 0.125 mM NAD, 15 μM Estradiol, 1.5 h; NADH fluorescence; read-out: 17HSD17b4 Enzyme assay IC50
Procedure: In Vitro 17bHSD4 Enzyme Assay
10 concentration of compounds (0.2 μl) in DMSO was added to GREINER FLUOTRAC 200 384 well plate (781076) using ECHO dispensing (BECKMAN COULTER). 80 nl of 10 mM Estradiol (SIGMA, E8875) was added using Echo dispensing. The enzyme reaction was initiated by addition, using MULTIDROP COMBI dispensing (THERMO FISHER), of 40 μl of a mix containing recombinant 17bHSD4 (M1-N311) and NAD. Final assay conditions were 40 nM of 17bHSD4, 0.125 mM of NAD, 15 μM Estradiol and various concentrations of compound in buffer (5 mM EDTA (TEKNOVA E0306), 0.01% DDM (AFFYMETRIX D310) in 50 mM Tris-Cl, pH 7.4). After each addition plates were centrifuged for 1 min at 150×g (EPPENDORF, 5810R, A-4-81). NADH formation was measured by fluorescence intensity (FI) (Ex360/Em460) at time zero (to) and at 1.5 h (t1) in a PHERASTAR FSX (BMG LABTECH). FI for each sample was calculated as FI at t1 minus FI at t0.
(§1) […] […] was used for curve fitting and calculation of IC50 values.
(§2) Compound effect was calculated with the formula below;
(§3) where X represents the effect in the presence of test compound, min is DMSO and max is the maximum inhibition of enzyme using a known inhibitor as control.

[2] = target: recombinant 17bHSD13 (N2-K300) (Homo sapiens (Human), UniProt Q7Z5P4); test: In Vitro 17bHSD13 Enzyme Assay; assay type: biochemical; settings: 80 nM 17bHSD13, 0.5 mM NAD, 20 μM Estradiol, 2.5 h; estradiol to estrone by LC-MS/MS
Procedure: In Vitro 17bHSD13 Enzyme Assay
The enzyme reaction was initiated by addition, using CERTUS-FLEX dispenser (GYGER), of 20 μl of substrate solution containing NAD (SIGMA, N1511) and Estradiol (SIGMA, E8875). […] Final assay conditions were 80 nM of 17bHSD13, 0.5 mM of NAD, 20 μM Estradiol and various concentrations of compound in buffer (5 mM EDTA (TEKNOVA E0306), 0.01% DDM (AFFYMETRIX D310) in 50 mM Tris-Cl, pH 7.4).
(§4) SCIEX LC-MS/MS system: Sample was injected with CTC analytical injector, SHIMATZU LC pumps LC20 and analyzed on the SCIEX API 5000 LCMSMS system with the following settings. […] The mobile phases consist of A (water with 0.2% formic acid) and B (acetonitrile with 0.2% formic acid). The LC gradient profile is as follows: 50% B during 0 to 0.5 min, a linear increase to 100% B during 0.5 to 1 min, hold at 100% B during 1 to 1.6 min then back to 50% B from 1.6 to 2 min. […] Detection was performed on a API 5000 LC/MS/MS system with a triple quadrupole mass spectrometer, a TURBO V ion source, in multiple reaction monitoring (MRM) mode at positive polarity with APCI probe. […] The dwell times were 100 ms for each transition and a depolarization and collision energy of 100 and 40, respectively. Data from MS signals was using area under curve (AUC). Ratio=Estrone/(Estrone+Estradiol)
as §1, §2, §3

[3] = target: over expressed HSD17β13 in HEK293S cells (Homo sapiens (Human), UniProt Q7Z5P4); test: In Vitro 17bHSD13 Cell Assay; assay type: cell-based; settings: HEK293S cells over expressing HSD17β13; estradiol to estrone conversion, 18 h, LC-MS/MS; read-out: 17bHSD1713 Cell assay IC50
Procedure: In Vitro 17bHSD13 Cell Assay
Inhibition of 17bHSD13 was measured in a cell-based assay with over expressed HSD17β13 in HEK293S cells, measuring estradiol to estrone conversion by LCMS/MS.
Samples were analyzed using LC-MS/MS.
as §4, with “analysed” for “analyzed”
as §1, §2, §3

[4] = target: over expressed HSD17β9 in HEK293S cells (Homo sapiens (Human), UniProt Q92781); test: In Vitro 17bHSD9 Cell Assay; assay type: cell-based; settings: HEK293S cells over expressing HSD17β9; retinol to retinal conversion, 18 h, LC-MS/MS; read-out: 17bHSD9 Cell assay IC50
Procedure: In Vitro 17bHSD9 Cell Assay
Inhibition of 17bHSD9 was measured in a cell-based assay with over expressed HSD17β9 in HEK293S cells, measuring retinol to retinal conversion by LCMS/MS.
Cells were plated in 384 well plates (GREINER CELL culture plate 384w black/clear Poly-D-Lysine) at 10 K c/w in 30 μl of culture media (DMEM with GLUTAMAX plus 10% FBS). […] After 18 h of cell culturing for 20 μl of media was transferred using BRAVO dispensing robot (AGILENT) to a GREINER PP 384 well plate (781280) and 40 μl of 50% acetonitrile was added. Samples were analyzed using LC-MS/MS.
SCIEX LC-MS/MS system: Sample was injected with CTC analytical injector, SHIMATZU LC pumps LC20 and analysed on the SCIEX API 5000 LCMSMS system with the following settings. Samples were chromatographed on a WATERS, symmetry, C8, 3.5 μm, 2.1×50 mm) column at constant flow rate of 0.5 mL/min. The mobile phases consists of A (water with 0.2% formic acid) and B (acetonitrile with 0.2% formic acid). The LC gradient profile is as follows: 50% B during 0 to 0.1 min, a linear increase to 100% B during 0.1 to 0.8 min, hold at 100% B during 0.8 to 1.5 min then back to 50% B from 1.5 to 1.6 min and hold during run time. The run time was 2 min with retention times of approximately 1.54 and 1.62 min for Retinol and Retinal, respectively. Detection was performed on a API 5000 LC/MS/MS system with a triple quadrupole mass spectrometer, a TURBO V ion source, in multiple reaction monitoring (MRM) mode at positive polarity with ESI probe. The MRM pairs were m/z 269.3 to m/z 93.0 and m/z 285.2 to 161.0. for Retinol and Retinal, respectively. The dwell times were 100 ms for each transition and a depolarization and collision energy of 50 and 25, respectively. Data from MS signals was using area under curve (AUC). Ratio=Retinal/(Retinal+Retinol).
as §1, §2, §3

Chain of over expressed HSD17β13 in HEK293S cells (Q7Z5P4 20-300): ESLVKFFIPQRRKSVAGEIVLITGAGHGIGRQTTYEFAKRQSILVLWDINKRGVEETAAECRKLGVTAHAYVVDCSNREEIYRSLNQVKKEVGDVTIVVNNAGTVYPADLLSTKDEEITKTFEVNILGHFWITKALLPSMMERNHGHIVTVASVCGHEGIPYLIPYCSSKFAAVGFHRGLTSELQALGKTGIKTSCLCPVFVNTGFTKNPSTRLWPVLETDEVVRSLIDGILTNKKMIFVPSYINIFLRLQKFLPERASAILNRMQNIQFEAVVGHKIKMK
Chain of recombinant 17bHSD13 (N2-K300) (Q7Z5P4 2-300): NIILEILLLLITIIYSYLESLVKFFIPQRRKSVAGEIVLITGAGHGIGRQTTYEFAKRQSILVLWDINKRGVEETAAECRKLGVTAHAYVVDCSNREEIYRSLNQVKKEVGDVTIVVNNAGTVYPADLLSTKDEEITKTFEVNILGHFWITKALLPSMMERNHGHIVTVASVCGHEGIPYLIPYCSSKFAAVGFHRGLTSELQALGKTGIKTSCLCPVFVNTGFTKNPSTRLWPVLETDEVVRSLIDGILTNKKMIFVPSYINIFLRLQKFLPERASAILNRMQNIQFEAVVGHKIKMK
Chain of recombinant 17bHSD4 (M1-N311) (P51659 1-311): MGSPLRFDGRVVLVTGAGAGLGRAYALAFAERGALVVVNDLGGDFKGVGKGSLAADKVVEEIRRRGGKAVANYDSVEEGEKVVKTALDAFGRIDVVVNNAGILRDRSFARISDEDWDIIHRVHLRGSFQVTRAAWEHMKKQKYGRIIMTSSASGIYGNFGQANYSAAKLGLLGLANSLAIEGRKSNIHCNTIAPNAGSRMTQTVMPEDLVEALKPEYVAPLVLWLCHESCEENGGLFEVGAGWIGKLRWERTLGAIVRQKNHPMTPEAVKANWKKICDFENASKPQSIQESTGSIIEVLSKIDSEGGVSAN
Chain of over expressed HSD17β9 in HEK293S cells (Q92781 whole entry): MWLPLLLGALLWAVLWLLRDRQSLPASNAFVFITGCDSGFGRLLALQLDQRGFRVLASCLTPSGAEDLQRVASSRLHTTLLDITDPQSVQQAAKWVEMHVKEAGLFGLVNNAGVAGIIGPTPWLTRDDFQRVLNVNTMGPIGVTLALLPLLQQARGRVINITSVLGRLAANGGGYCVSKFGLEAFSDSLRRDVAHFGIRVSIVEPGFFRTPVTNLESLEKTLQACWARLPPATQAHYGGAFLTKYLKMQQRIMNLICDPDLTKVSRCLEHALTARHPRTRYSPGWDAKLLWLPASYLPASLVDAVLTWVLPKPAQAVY

Structure (SMILES)	IC50 [1] [nM]	IC50 [2] [nM]	IC50 [3] [nM]	IC50 [4] [nM]
O=C(c1noc(-c2cc(F)c(F)c(O)c2F)n1)N1CCO[C@H](C(F)(F)F)C1 [Example 46, (S)-(5-(2,4,5-Trifluoro-3-hydroxyphenyl)-1,2,4-oxadiazol-3-yl)(2-(trifluoromethyl)morpholino)methanone]	> 50000	517	370	7700
O=C(c1noc(-c2cc(F)c(F)c(O)c2F)n1)N1CCOC2(CCOCC2)C1 [Example 53, (1,9-Dioxa-4-azaspiro[5.5]undecan-4-yl)(5-(2,4,5-trifluoro-3-hydroxyphenyl)-1,2,4-oxadiazol-3-yl)methanone]	> 50000	2780	5610	> 50000
O=C(c1noc(-c2cc(F)c(F)c(O)c2F)n1)N1CC=C(c2ccccc2)CC1 [Example 62, (4-Phenyl-3,6-dihydropyridin-1(2H)-yl)(5-(2,4,5-trifluoro-3-hydroxyphenyl)-1,2,4-oxadiazol-3-yl)methanone]	3000	46	960	15800
O=C(c1noc(-c2cc(F)c(F)c(O)c2F)n1)N1CCc2ccccc2C1 [Example 64, (3,4-Dihydroisoquinolin-2(1H)-yl)(5-(2,4,5-trifluoro-3-hydroxyphenyl)-1,2,4-oxadiazol-3-yl)methanone]	5600	48	270	11200
COc1ccc(OC2CCN(C(=O)c3noc(-c4cc(F)c(F)c(O)c4F)n3)CC2)nc1 [Example 68, (4-((5-Methoxypyridin-2-yl)oxy)piperidin-1-yl)(5-(2,4,5-trifluoro-3-hydroxyphenyl)-1,2,4-oxadiazol-3-yl)methanone]	26300	44	800	30400
O=C(c1noc(-c2cc(F)c(F)c(O)c2F)n1)N1CCN(c2nc3ccccc3o2)CC1 [Example 72, (4-(Benzo[d]oxazol-2-yl)piperazin-1-yl)(5-(2,4,5-trifluoro-3-hydroxyphenyl)-1,2,4-oxadiazol-3-yl)methanone]	19000	62	1120	> 50000
COc1ccccc1N1CCN(C(=O)c2noc(-c3cc(F)c(F)c(O)c3F)n2)CC1 [Example 84, (4-(2-Methoxyphenyl)piperazin-1-yl)(5-(2,4,5-trifluoro-3-hydroxyphenyl)-1,2,4-oxadiazol-3-yl)methanone]	19800	198	300	> 50000
CC(C)c1noc(C2=CCN(C(=O)c3noc(-c4cc(F)c(F)c(O)c4F)n3)CC2)n1 [Example 107, (4-(3-Isopropyl-1,2,4-oxadiazol-5-yl)-3,6-dihydropyridin-1(2H)-yl)(5-(2,4,5-trifluoro-3-hydroxyphenyl)-1,2,4-oxadiazol-3-yl)methanone]	10500	143	370	5000
C[C@@H]1CN(C(=O)c2nc(-c3cc(F)c(F)c(O)c3F)no2)C[C@H](C)O1 [Example 110, ((2R,6S)-2,6-Dimethylmorpholino)(3-(2,4,5-trifluoro-3-hydroxyphenyl)-1,2,4-oxadiazol-5-yl)methanone]	> 50000	1010	240	> 50000

The remaining lines, values ahead:

IC50 [1] [nM]	IC50 [2] [nM]	IC50 [3] [nM]	IC50 [4] [nM]	Structure (SMILES)
> 50000	388	1100	> 50000	CC1(C)COCCN1C(=O)c1noc(-c2cc(F)c(F)c(O)c2F)n1 [Example 48, (3,3-Dimethylmorpholino)(5-(2,4,5-trifluoro-3-hydroxyphenyl)-1,2,4-oxadiazol-3-yl)methanone]
> 50000	1670	540	> 50000	O=C(c1noc(-c2cc(F)c(F)c(O)c2F)n1)N1CCO[C@@H](CF)C1 [Example 49, (R)-(2-(Fluoromethyl)morpholino)(5-(2,4,5-trifluoro-3-hydroxyphenyl)-1,2,4-oxadiazol-3-yl)methanone]
> 50000	1690	2690	> 50000	C[C@@H]1CCN(C(=O)c2noc(-c3cc(F)c(F)c(O)c3F)n2)CCO1 [Example 51, (R)-(7-Methyl-1,4-oxazepan-4-yl)(5-(2,4,5-trifluoro-3-hydroxyphenyl)-1,2,4-oxadiazol-3-yl)methanone]
34600	281	480	1200	O=C(c1noc(-c2cc(F)c(F)c(O)c2F)n1)N1CCOC2(CCC2)C1 [Example 52, (5-Oxa-8-azaspiro[3.5]nonan-8-yl)(5-(2,4,5-trifluoro-3-hydroxyphenyl)-1,2,4-oxadiazol-3-yl)methanone]
> 50000	392	150	> 50000	C[C@H]1CN(C(=O)c2noc(-c3cc(F)c(F)c(O)c3F)n2)C[C@H](C)O1 [Example 54, ((2S,6S)-2,6-Dimethylmorpholino)(5-(2,4,5-trifluoro-3-hydroxyphenyl)-1,2,4-oxadiazol-3-yl)methanone]
